Data as given in publication PMC3257419 (Journal of Medicinal Chemistry, 2011).

Columns and labels:
[1] = system: cocaine-induced increases in synaptic dopamine; test: MicroPET imaging of [11C]-raclopride binding after cocaine; assay type: in vivo, rat; settings: cocaine alone, average
[2] = system: alanine aminotransferase; settings: cited from earlier work
[3] = system: white matter of the CNS; settings: characterized as intramyelinic edema; cited from earlier work
[4] = system: patients; settings: following chronic administration; cited from earlier work
[5] = system: Sprague-Dawley rats; settings: Vigabatrin/Cocaine, vigabatrin 300 mg/kg; ref Dewey et al.[7]; cited from earlier work
[6] = system: subjects; settings: trial of 103 subjects, placebo 7.5%; cited from earlier work
[7] = system: Wistar albino rats
[8] = system: GABA transport; settings: cited from earlier work
[9] = system: succinic semialdehyde dehydrogenase; settings: cited from earlier work

Compound	reduction of [11C]-raclopride binding [1] [%]	effect on alanine aminotransferase activity in vivo [2]	CNS histopathological finding [3]	patients with visual field defects (VFDs) [4]	Time in chamber (min) unpaired [5] [min]	subjects who achieved abstinence [6] [%]	implicit times of the ERGs ([7]; CPP-115 20 mg/kg, vigabatrin 200 mg/kg)	clinical observation in the first three weeks of treatment ([7]; CPP-115 20 mg/kg, vigabatrin 200 mg/kg daily i.p.)	10 Hz flicker ERGs compared to both CPP-115 and controls ([7]; both sexes, both time points, data not shown)	rod, mesopic, and cone b-wave implicit times compared to controls or CPP-115 ([7]; females, 200 mg/kg, data not shown)	action on GABA reuptake [8]	effect on succinic semialdehyde dehydrogenase activity in vivo [9]
COC(=O)[C@H]1[C@@H](OC(=O)c2ccccc2)C[C@@H]2CC[C@H]1N2C [Cocaine, reference compound]	22	–	–	–	–	–	–	–	–	–	–	–
C=CC(N)CCC(=O)O (stereo not drawn) [Vigabatrin, vigabatrin]	–	reduce activities	microvacuolization in the white matter of the CNS	25–50%	7.1 ± 0.6	28	little or no drug effect	sedative effects	significantly lower	significantly increased	GABA reuptake inhibitor	reduce activities
